# Experimental data as given in patent US5668161A, “Substituted thiazoles for the treatment of inflammation” (G.D. Searle & Co., priority 1996, dated 1997).
# pIC50: −log10 of the molar value.
# Tests used:
# murine COX-I = biological target: T1, murine COX-I (Mus musculus, UniProt P22437); test: COX I activity in vitro, murine (PGE2 by ELISA)
# T1 sequence (P22437 27-602): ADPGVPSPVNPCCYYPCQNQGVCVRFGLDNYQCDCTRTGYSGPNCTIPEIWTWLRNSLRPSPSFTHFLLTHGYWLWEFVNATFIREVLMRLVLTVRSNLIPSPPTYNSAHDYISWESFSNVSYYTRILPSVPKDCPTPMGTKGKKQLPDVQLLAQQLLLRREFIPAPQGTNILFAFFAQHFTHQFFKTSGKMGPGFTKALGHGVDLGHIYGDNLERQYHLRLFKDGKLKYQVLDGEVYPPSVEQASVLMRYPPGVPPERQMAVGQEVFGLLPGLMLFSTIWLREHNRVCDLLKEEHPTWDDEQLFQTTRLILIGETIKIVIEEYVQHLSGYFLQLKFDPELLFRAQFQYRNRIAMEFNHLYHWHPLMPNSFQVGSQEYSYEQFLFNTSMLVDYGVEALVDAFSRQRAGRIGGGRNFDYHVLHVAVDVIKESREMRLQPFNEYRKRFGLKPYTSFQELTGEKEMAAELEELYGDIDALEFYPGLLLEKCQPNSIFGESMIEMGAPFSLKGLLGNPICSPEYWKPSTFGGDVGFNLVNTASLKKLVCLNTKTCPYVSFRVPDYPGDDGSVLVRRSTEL
# murine COX-II = biological target: T2, murine COX-II (Mus musculus, UniProt Q05769); test: biochemical
# T2 sequence (Q05769 18-604): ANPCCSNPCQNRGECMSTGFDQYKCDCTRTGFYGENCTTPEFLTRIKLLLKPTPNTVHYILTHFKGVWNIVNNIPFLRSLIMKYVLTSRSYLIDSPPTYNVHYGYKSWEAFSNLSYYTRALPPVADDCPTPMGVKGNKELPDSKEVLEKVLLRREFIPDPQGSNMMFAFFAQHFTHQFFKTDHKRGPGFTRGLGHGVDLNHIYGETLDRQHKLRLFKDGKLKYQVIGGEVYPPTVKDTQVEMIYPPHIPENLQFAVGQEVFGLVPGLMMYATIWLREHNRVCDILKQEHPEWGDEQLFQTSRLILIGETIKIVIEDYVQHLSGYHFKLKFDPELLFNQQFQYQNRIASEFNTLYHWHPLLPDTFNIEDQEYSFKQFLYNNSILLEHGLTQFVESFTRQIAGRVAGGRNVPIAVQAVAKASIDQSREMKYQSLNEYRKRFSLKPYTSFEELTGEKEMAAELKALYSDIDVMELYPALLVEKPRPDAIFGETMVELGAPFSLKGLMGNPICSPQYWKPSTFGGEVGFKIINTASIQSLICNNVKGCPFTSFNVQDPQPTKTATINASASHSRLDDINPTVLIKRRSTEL
# carrageenan foot edema = test: Rat Carrageenan Foot Pad Edema Test; format: in vivo, rat (Male Sprague-Dawley); conditions: oral, 3 hours after carrageenan, read-out: RAT PAW EDEMA % Inhibition; for inhibition at 20 mg/kg: @ 20 mg/kg body weight
# Experimental: Male Sprague-Dawley rats were selected in each group so that the average body weight was as close as possible. Rats were fasted with free access to water for over sixteen hours prior to the test. […] One hour later a subplantar injection of 0.1 mL of 1% solution of carrageenan/sterile 0.9% saline was administered and the volume of the injected foot was measured with a displacement plethysmometer connected to a pressure transducer with a digital indicator. Three hours after the injection of the carrageenan, the volume of the foot was again measured. […] Rat Carrageenan-induced Analgesia Test
SMILES,pIC50 (murine COX-I),pIC50 (murine COX-II),inhibition at 20 mg/kg (carrageenan foot edema),inhibition at 10 mg/kg (carrageenan foot edema)
"CS(=O)(=O)c1ccc(-c2sc(-c3ccncc3)nc2-c2ccc(F)cc2)cc1 [Example 8, 4-(4-Fluorophenyl)-5-(4-methylsulfonylphenyl)-2-(4-pyridyl)thiazole]",< 4.00,6.70,12%,
CS(=O)(=O)c1ccc(-c2sc(CS(=O)(=O)c3cccs3)nc2-c2ccc(F)cc2)cc1 [Example 13],< 4.52,5.92,,
"CCOC(=O)c1nc(-c2ccc(F)cc2)c(-c2ccc(S(C)(=O)=O)cc2)s1 [Example 17, Ethyl [4-(4-fluorophenyl)-5-(4-methylsulfonylphenyl)-2-thiazolyl]carboxylate]",< 5.00,6.52,,
"CC(C)(C)c1nc(-c2ccc(F)cc2)c(-c2ccc(S(C)(=O)=O)cc2)s1 [Example 18, 2-(tert-Butyl)-4-(4-fluorophenyl)-5-(4-methylsulfonylphenyl)thiazole]",5.27,6.82,,
"CS(=O)(=O)c1ccc(-c2sc(Cc3ccccc3)nc2-c2ccc(F)cc2)cc1 [Example 19, 2-Benzyl-4-(4-fluorophenyl)-5-(4-methylsulfonylphenyl)thiazole]",6.40,,,
"Cc1nc(-c2ccc(S(C)(=O)=O)cc2)c(-c2ccc(F)cc2)s1 [Example 20, 5-(4-Fluorophenyl)-4-(4-methylsulfonylphenyl)-2-methylthiazole]",< 5.00,7.00,48%,
"CS(=O)(=O)c1ccc(-c2scnc2-c2ccc(F)cc2)cc1 [Example 22, 4-(4-Fluorophenyl)-5-(4-methylsulfonylphenyl)thiazole]",< 4.00,4.95,,
"CS(=O)(=O)c1ccc(-c2sc(-c3cccs3)nc2-c2ccc(F)cc2)cc1 [Example 24, 4-(4-Fluorophenyl)-5-(4-methylsulfonylphenyl)-2-(2-thienyl)thiazole]",< 5.00,> 7.00,,20%
"CS(=O)(=O)c1ccc(-c2sc(-c3cccnc3)nc2-c2ccc(F)cc2)cc1 [Example 26, 4-(4-Fluorophenyl)-5-(4-methylsulfonylphenyl)-2-(3-pyridyl)thiazole]",< 4.00,,,
"CS(=O)(=O)c1ccc(-c2sc(CC#N)nc2-c2ccc(F)cc2)cc1 [Example 27, 2-(Cyanomethyl)-4-(4-fluorophenyl)-5-(4-methylsulfonylphenyl)thiazole]",< 5.00,6.70,,
"Cc1nc(-c2ccc(F)cc2)c(-c2ccc(S(C)(=O)=O)cc2)s1 [Example 28, 4-(4-Fluorophenyl)-5-(4-methylsulfonylphenyl)-2-methylthiazole]",< 5.00,> 7.00,,
"CS(=O)(=O)c1ccc(-c2sc(N3CCCCC3)nc2-c2ccc(F)cc2)cc1 [Example 30, 4-(4-Fluorophenyl)-5-(4-methylsulfonylphenyl)-2-(1-piperidinyl)thiazole]",6.05,6.52,,
"CCCNc1nc(-c2ccc(F)cc2)c(-c2ccc(S(C)(=O)=O)cc2)s1 [Example 31, 4-(4-Fluorophenyl)-5-(4-methylsulfonylphenyl)-2-(1-propylamino)thiazole]",< 5.00,7.00,,27.5%
"CS(=O)(=O)c1ccc(-c2sc(-c3ccccc3Cl)nc2-c2ccccc2F)cc1 [Example 35, 2-(2-Chlorophenyl)-4-(2-fluorophenyl)-5-(4-methylsulfonylphenyl)thiazole]",< 4.00,,16%,
"CS(=O)(=O)c1ccc(-c2sc(COc3cccc(Cl)c3)nc2-c2ccc(F)cc2)cc1 [Example 37, 2-((3-Chlorophenoxy)methyl)-4-(4-fluorophenyl)-5-(4-methylsulfonylphenyl)thiazole]",< 4.00,> 7.00,9%,
"Cc1nc(-c2nc(-c3ccc(F)cc3)c(-c3ccc(S(C)(=O)=O)cc3)s2)cs1 [Example 39, 4-(4-Fluorophenyl)-5-[4-(methylsulfonyl)phenyl]-2-(2-methyl-4-thiazolyl)thiazole]",< 5.00,6.52,19%,
"CCc1nc(-c2ccc(F)cc2)c(-c2ccc(S(C)(=O)=O)cc2)s1 [Example 42, 2-Ethyl-4-(4-fluorophenyl)-5-(4-methylsulfonylphenyl)thiazole]",5.72,> 7.00,,
"CS(=O)(=O)c1ccc(-c2sc(CCCc3ccccc3)nc2-c2ccc(F)cc2)cc1 [Example 43, 4-(4-Fluorophenyl)-5-(4-methylsulfonylphenyl)-2-(3-phenylpropyl)thiazole]",4.00,5.89,,
"CS(=O)(=O)c1ccc(-c2sc(CCc3ccccc3)nc2-c2ccc(F)cc2)cc1 [Example 44, 4-(4-Fluorophenyl)-5-(4-methylsulfonylphenyl)-2-(2-phenylethyl)thiazole]",5.77,,,
"CS(=O)(=O)c1ccc(-c2sc(-c3ccccc3)nc2-c2ccc(F)cc2)cc1 [Example 45, 4-(4-Fluorophenyl)-5-(4-methylsulfonylphenyl)-2-phenylthiazole]",< 4.00,> 7.00,,19%
"CCCCCCNc1nc(-c2ccc(F)cc2)c(-c2ccc(S(C)(=O)=O)cc2)s1 [Example 46, 4-(4-Fluorophenyl)-2-n-hexylamino-5-(4-methylsulfonylphenyl)thiazole]",5.85,> 7.00,,25%
"CCCCNc1nc(-c2ccc(F)cc2)c(-c2ccc(S(C)(=O)=O)cc2)s1 [Example 47, 2-Butylamino-4-(4-fluorophenyl)-5-(4-methylsulfonylphenyl)thiazole]",5.85,> 7.00,12%,
"CNc1nc(-c2ccc(F)cc2)c(-c2ccc(S(C)(=O)=O)cc2)s1 [Example 48, 4-(4-Fluorophenyl)-5-(4-methylsulfonylphenyl)-2-methylaminothiazole]",< 5.00,6.52,,15%
"COc1ccc(-c2nc(-c3ccc(F)cc3)c(-c3ccc(S(C)(=O)=O)cc3)s2)cc1 [Example 49, 4-(4-Fluorophenyl)-5-(4-methylsulfonylphenyl)-2-(4-methoxyphenyl)thiazole]",< 5.00,6.52,,6%
"CCNc1nc(-c2ccc(F)cc2)c(-c2ccc(S(C)(=O)=O)cc2)s1 [Example 50, 2-Ethylamino-4-(4-fluorophenyl)-5-(4-methylsulfonylphenyl)-thiazole]",< 5.00,6.52,,11%
"CC(C)(C)Nc1nc(-c2ccc(F)cc2)c(-c2ccc(S(C)(=O)=O)cc2)s1 [Example 51, 2-tert-Butylamino-4-(4-fluorophenyl)-5-(4-methylsulfonylphenyl)thiazole]",4.92,6.52,,14%
"CS(=O)(=O)c1ccc(-c2sc(Nc3ccc(C#N)cc3)nc2-c2ccc(F)cc2)cc1 [Example 53, 2-(4-Cyanophenylamino)-4-(4-fluorophenyl)-5-(4-methylsulfonylphenyl)-thiazole]",6.70,6.05,,
"CCOC(=O)c1cccc(Nc2nc(-c3ccc(F)cc3)c(-c3ccc(S(C)(=O)=O)cc3)s2)c1 [Example 54, Ethyl-[3-[4-(4-fluorophenyl)-5-(4-methylsulfonylphenyl)-2-thiazolyl]amino]benzoate]",5.96,5.89,,
"CCOC(=O)c1ccc(Nc2nc(-c3ccc(F)cc3)c(-c3ccc(S(C)(=O)=O)cc3)s2)cc1 [Example 55, Ethyl [4-[4-(4-fluorophenyl)-5-(4-methylsulfonylphenyl)-2-thiazolyl]amino]benzoate]",< 5.00,5.46,,
